Counter-ions that a name gives are not always drawn. Like-named read-outs stand apart in the source and are kept apart here.
Columns and labels:
[1] = Bench scale groundwater treatment with peroxide-coated ozone nanobubbles (1260 ppmV O3, 10% H2O2); assay type: physicochemical; conditions: for PFC concentration in groundwater, 1 HR: 1260 ppmV O3, 10% H2O2, 1 HR; for PFC concentration in groundwater, 2 HR: 1260 ppmV O3, 10% H2O2, 2 HR; for % REMOVAL from groundwater: 1260 ppmV O3, 10% H2O2, start to last time point; for PFC concentration in groundwater, START: untreated start (0 minutes)
Experimental: (§1) On one foam fire-fighting site, samples of groundwater from monitoring well 1 (MW1) and soil samples between MW1 and monitoring well 3 (MW3) were shipped to the laboratory in coolers with blue ice packing to maintain the temperature at less than 4.4° C. (40° F.). Two sets of tests were conducted, groundwater and soil treatment.
Bench scale tests were conducted in a pressurized glass cylindrical reaction cell (17-20 psi) holding a laminar stainless steel spargepoint with a 0.20-micron porous surface. Four liters of groundwater were mixed together. A liter of distilled water as a blank was treated and set aside for analysis. The first liter of groundwater was also set aside as “start” condition (0 minutes). One liter of groundwater from MW1 was added to the cell. An ozone flow of 5 cm^3/sec was added at 1260 ppmV. Peroxide (10%) flow was 8 cm^3/minute and treated for 30 minutes. Pressure was 17-20 psi.
A second liter was added to the chamber and treated for 60 minutes. The blank, original (start), 30 minute, and 60 minute samples were placed in ice for analysis. A final sample (120 minute) was treated with 60 minutes of peroxide, but ozone continued for 120 minutes.

[2] = Bench scale soil treatment with peroxide-coated ozone nanobubbles (2400 ppmV O3), soil fraction; assay type: physicochemical; conditions: for removal in the soil series: 2400 ppmV O3, 41.1° C. to 43.3° C.; for decomposing the other PF compounds (removal) by the new solution: matrix not given
Experimental: as §1
(§2) For soil samples, 1000 cm^3 of soil was mixed together and then separated into four 250 cm^3 aliquots. The first was submitted as background (start) condition. The remaining three were treated with a fine bubble-coated ozone bubble solution from the pressurized generator (20-25 psi). The ozone concentration was 2400 ppmV with a flow of 5 cm^3/sec. The peroxide was 10% solution and supplied at 5 cm^3/min flow. The generator was filled with 500 liters of groundwater from the site well (MW1) which was delivered in 50 cm^3 surges to a two-liter flask with the soil under constant stirring action. The subsequent reaction raised the temperature of the soil/liquid solution from 20.6° C. (69° F.) to 22.8° C. (73° F.) after 10 minutes, reaching 41.1° C. (106° F.) after 30 minutes. For the 30-minute treatment, no further bubble solution was added; the flask was placed over water until bubbling ceased or two hours and then placed in chilled water. The overlying groundwater was decanted off, and the underlying semi-solid was placed in a glass jar and chilled for transport for analysis. A similar procedure was followed for the 60- and 120-minute soil aliquots.

[3] = Bench scale soil treatment (2400 ppmV O3), groundwater over soil slurry; assay type: physicochemical; conditions: for PFC concentration in groundwater over soil slurry, 30 MIN / PFC concentration in groundwater over soil slurry, 60 MIN / PFC concentration in groundwater over soil slurry, 120 MIN / % REMOVAL in groundwater over soil slurry: 2400 ppmV O3, 10% peroxide; for % REMOVAL in groundwater over soil slurry: start to 120 MIN
Experimental: as §1, §2

[4] = cited from earlier work
[5] = Bench scale groundwater treatment with peroxide-coated ozone nanobubbles (1260 ppmV O3, 10% H2O2); assay type: physicochemical; conditions: 1260 ppmV O3, 10% H2O2, 3 HR
[6] = cited from earlier work; for Water Solubility: at 25° C.
[7] = cited from earlier work; remark: listed apart in the source
[8] = cited from earlier work; remark: listed apart in the source
[9] = 155 mg/L PFOA, 12 g/L persulfate, 80° C., cited from earlier work
[10] = cited from earlier work; remark: listed apart in the source

## O=S(=O)(O)C(F)(F)C(F)(F)C(F)(F)C(F)(F)C(F)(F)C(F)(F)C(F)(F)C(F)(F)F [PFOS, perfluorooctane sulfonate]
[1]
  PFC concentration in groundwater, 1 HR: 150
  PFC concentration in groundwater, 2 HR: 160
  % REMOVAL from groundwater: 82.3%
  PFC concentration in groundwater, START: 430
[2]
  removal in the soil series: over 99%
[3]
  PFC concentration in groundwater over soil slurry, 30 MIN: 340
  PFC concentration in groundwater over soil slurry, 60 MIN: 33
  PFC concentration in groundwater over soil slurry, 120 MIN: 44
  % REMOVAL in groundwater over soil slurry: 89.8%
  PFC concentration in groundwater over soil slurry, START: 430
[4]
  Acidity (pKa): <<0
[5]
  PFC concentration in groundwater, 3 HR: 76

## OO [H2O2, hydrogen peroxide]
[4]
  Acidity (pKa): 11.7

## O=C(O)C(F)(F)C(F)(F)C(F)(F)C(F)(F)F [PFPeA, perfluoropentanoic acid]
[1]
  PFC concentration in groundwater, 1 HR: 27
  PFC concentration in groundwater, 2 HR: 23
  % REMOVAL from groundwater: 82.1%
  PFC concentration in groundwater, START: 84
[2]
  decomposing the other PF compounds (removal) by the new solution: 89.8%
[3]
  PFC concentration in groundwater over soil slurry, 30 MIN: 13
  PFC concentration in groundwater over soil slurry, 60 MIN: 8
  PFC concentration in groundwater over soil slurry, 120 MIN: 6
  % REMOVAL in groundwater over soil slurry: 92.9%
  PFC concentration in groundwater over soil slurry, START: 84
[5]
  PFC concentration in groundwater, 3 HR: 15

## O=C(O)C(F)(F)C(F)(F)C(F)(F)C(F)(F)C(F)(F)C(F)(F)C(F)(F)F [PFOA, perfluorooctanoic acid]
[1]
  PFC concentration in groundwater, 1 HR: 17
  PFC concentration in groundwater, 2 HR: 13
  % REMOVAL from groundwater: 73.6%
  PFC concentration in groundwater, START: 34
[2]
  removal in the soil series: over 97%
[3]
  PFC concentration in groundwater over soil slurry, 30 MIN: 22
  PFC concentration in groundwater over soil slurry, 60 MIN: 4
  PFC concentration in groundwater over soil slurry, 120 MIN: 3
  % REMOVAL in groundwater over soil slurry: 91.2%
  PFC concentration in groundwater over soil slurry, START: 34
[6]; Table 2
  Solubility in water: Soluble, 9.5 g/L
[6]; purified
  Water Solubility: 9.5 × 10^3 (purified) mg/L
[7]
  Vapor Pressure at 20° C.: 0.017 mm Hg
[4]
  Acidity (pKa): 0
[8]
  Solubility in other solvents: Polar organic solvents
[9]; 6 hours
  Fluoride ions formed (molar ratio): 77.5%
  carbon dioxide formed (molar ratio): 70.2%
[9]; after 6 hours, 0.6 mg/L = detection limit
  aqueous phase PFOA concentration after treatment: less than 0.6 mg/L
[10]; 1 M H2O2 and 0.5 mM iron (III), within 150 minutes
  PFOA degraded: 94%
[10]; reactions generating O2^− or HO2^− alone
  PFOA degradation: degraded rapidly
[5]
  PFC concentration in groundwater, 3 HR: 9

## O=S(=O)(O)C(F)(F)C(F)(F)C(F)(F)C(F)(F)C(F)(F)C(F)(F)F [PFHxS, perfluorohexane sulfonate]
[1]
  PFC concentration in groundwater, 1 HR: 100
  PFC concentration in groundwater, 2 HR: 110
  % REMOVAL from groundwater: 86%
  PFC concentration in groundwater, START: 300
[2]
  decomposing the other PF compounds (removal) by the new solution: 98.1%
[3]
  PFC concentration in groundwater over soil slurry, 30 MIN: 87
  PFC concentration in groundwater over soil slurry, 60 MIN: 14
  PFC concentration in groundwater over soil slurry, 120 MIN: 8
  % REMOVAL in groundwater over soil slurry: 97.4%
  PFC concentration in groundwater over soil slurry, START: 300
[5]
  PFC concentration in groundwater, 3 HR: 42

## O=C(O)C(F)(F)C(F)(F)C(F)(F)C(F)(F)C(F)(F)F [PFHxA, perfluorohexanoic acid]
[1]
  PFC concentration in groundwater, 1 HR: 110
  PFC concentration in groundwater, 2 HR: 150
  % REMOVAL from groundwater: 69.2%
  PFC concentration in groundwater, START: 270
[2]
  decomposing the other PF compounds (removal) by the new solution: 86.2%
[3]
  PFC concentration in groundwater over soil slurry, 30 MIN: 75
  PFC concentration in groundwater over soil slurry, 60 MIN: 34
  PFC concentration in groundwater over soil slurry, 120 MIN: 23
  % REMOVAL in groundwater over soil slurry: 91.5%
  PFC concentration in groundwater over soil slurry, START: 270
[5]
  PFC concentration in groundwater, 3 HR: 86

## O=S(=O)(O)C(F)(F)C(F)(F)C(F)(F)C(F)(F)C(F)(F)C(F)(F)C(F)(F)C(F)(F)F [PFOS (Potassium Salt)]
[6]; filtered seawater
  Water Solubility: (freshwater), 25 (filtered mg/L
[6]; freshwater
  Water Solubility: 370 mg/L
[7]
  Vapor Pressure at 20° C.: 2.48 × 10^−6 mm Hg

Reference: patent US9694401B2, “Method and apparatus for treating perfluoroalkyl compounds” (ThinkVillage-Kerfoot, LLC, priority 2013, dated 2017)
